From US6746623B2, “Alkyl glycidyl ether-capped diamine foam controlling agent” (Air Products and Chemicals, Inc., priority 2002, dated 2004)

Columns and labels:
[1] = Foam test of DOSS solutions with added foam control agent (based on ASTM D 1173-53); assay type: physicochemical; conditions: 0.1 wt % foam control agent added to 0.1 wt % DOSS in water; for Initial foam height: ambient temperature
Description: Dioctyl sodium sulfosuccinate (DOSS) is a commonly used surfactant in waterborne compositions. DOSS is capable of forming stable foams when dissolved in water. The foam control characteristics of various foam control agents may be assessed by measuring the foam generated by a 0.1 wt % aqueous solution of DOSS and comparing this to the foam generated after the addition of foam control agent to a 0.1 wt % DOSS solution. The DOSS utilized in these measurements was an Aerosol OT 75% surfactant obtained from Cytec Industries. The foaming and foam stability of DOSS were measured using a procedure based upon ASTM D 1173-53 at ambient temperature, typically 23° C.
In these tests, an aqueous solution of DOSS or the filtrate from the DOSS/foam control agent mixture is added from an elevated foam pipette to a foam receiver containing the same solution. The foam height is measured at the completion of the addition (“Initial Foam Height”) and the time required for the foam to dissipate at the air-liquid interface (“Time to 0 Foam”) is recorded. This test provides a comparison between the foaming characteristics of various aqueous compositions. The results for the foam control agents prepared in Examples 1-28 are reported in Table 1 along with comparative data for a 0.1 wt % solution of DOSS with no added foam control agent (Example 29).

[2] = Dynamic surface tension of aqueous solutions, maximum bubble pressure method; assay type: physicochemical; conditions: for γ at 0.1 wt %, 0.1 b/s / γ at 0.1 wt %, 1 b/s / γ at 0.1 wt %, 6 b/s / γ at 0.1 wt %, 20 b/s: 0.1 wt % in distilled water; for γ limiting, 0.1 b/s / γ limiting, 1 b/s / γ limiting, 6 b/s / γ limiting, 20 b/s: saturated solution made using 1.0 wt % in water
Description: Dynamic surface tension data were obtained for the soluble portion of these samples using the maximum bubble pressure method at bubble rates from 0.1 bubbles/sec (b/s) to 20 b/s.
The relative efficiency of surface tension reduction can be obtained by comparing surface tension reduction of solutions containing the same amount of different surfactants. Such data are given for 0.1 wt % solutions of the foam control agents at 0.1, 1, 6 and 20 bubbles/second (b/s). The limiting surface tensions at 0.1, 1, 6 and 20 b/s represent the lowest surface tensions in water which can be achieved at the given surface creation rates for a given surfactant regardless of the amount of surfactant used and is used to evaluate the effectiveness of a surfactant. In most cases the limiting surface tension was taken at 1.0 wt % since the foam control agent was insoluble at this concentration. In the case where the foam control agent was soluble at 1.0 wt %, the limiting surface tension was taken at 5.0 wt % (where the samples were insoluble). These values give information about the relative ability to a surfactant to reduce surface defects under near-equilibrium conditions (0.1 b/s) through very dynamic conditions (20 b/s).

Structure (SMILES)	Foam height after 1 min [1] [cm]	Foam height after 10 min [1] [cm]	Initial foam height [1] [cm]	γ at 0.1 wt %, 0.1 b/s [2] [dyne/cm]	γ at 0.1 wt %, 1 b/s [2] [dyne/cm]	γ at 0.1 wt %, 6 b/s [2] [dyne/cm]	γ at 0.1 wt %, 20 b/s [2] [dyne/cm]	γ limiting, 0.1 b/s [2] [dyne/cm]	γ limiting, 1 b/s [2] [dyne/cm]	γ limiting, 6 b/s [2] [dyne/cm]	γ limiting, 20 b/s [2] [dyne/cm]
CCCCOCC(O)CN(CCN(CC(O)COCCCC)CC(O)COCCCC)CC(O)COCCCC (stereo not shown) [EDA/4 BGE]	1.3	1.2	1.9	36.7	38.9	44.4	58.4	35.9	37.0	39.2	43.0
CCCCC(CC)COCC(O)CN(CCN(CC(O)COCC(CC)CCCC)CC(O)COCC(CC)CCCC)CC(O)COCC(CC)CCCC (stereo not shown) [EDA/4 EHGE]	2.5	2.1	3.0	60.7	67.9	71.0	71.7	44.4	50.6	51.0	52.1
CC(C)COCC(O)CN(CCN(CC(O)COCC(C)C)CC(O)COCC(C)C)CC(O)COCC(C)C (stereo not shown) [EDA/4 IBGE]	1.5	1.2	2.0	37.6	41.7	51.4	65.5	34.8	36.7	40.3	49.4
CCCCOCC(O)CNCCCCCCN(CC(O)COCCCC)CC(O)COCCCC (stereo not shown) [HDA/3 BGE]	0	0	1.2	40.3	43.1	47.5	55.4	37.9	39.1	40.7	44.4
CCCCOCC(O)CN(CCCCCCN(CC(O)COCCCC)CC(O)COCCCC)CC(O)COCCCC (stereo not shown) [HDA/4 BGE]	1.3	1.2	1.5	42.9	55.9	67.6	70.8	37.3	39.0	40.8	41.9
CCCCOCC(O)CN(CCCC(C)CN(CC(O)COCCCC)CC(O)COCCCC)CC(O)COCCCC (stereo not shown) [MPD/4 BGE]	1.5	0.5	2.5	42.8	55.7	67.5	67.7	35.3	36.4	38.9	41.5
CCCCOCC(O)CNC1CCC(CC2CCC(N(CC(O)COCCCC)CC(O)COCCCC)CC2)CC1 (stereo not shown) [PACM/3 BGE]	2.8	1.5	2.5	50.2	59.2	69.1	71.8	47.9	54.0	63.5	65.8
CCCCOCC(O)CN(CC(O)COCCCC)C1CCC(CC2CCC(N(CC(O)COCCCC)CC(O)COCCCC)CC2)CC1 (stereo not shown) [PACM/4 BGE]	2.1	1.8	2.7	70.6	71.8	72.0	72.4	58.5	68.5	70.5	71.0
